Reference: patent US9498483B2, “2,3,5-trisubstituted thiophene compounds and uses thereof” (priority 2010, dated 2016)

Legend:
[1] = test system: HCV replicon I389luc-ubi-neo/NS3-3′/ET in ET (Huh-lucubineo-ET) cells; experiment: Replicon assay (Biological Example 2), luciferase readout; assay type: cell-based; details: Hepatitis C virus
How it was run: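 EC50 values come from Hill fits of % inhibition of replicon-driven firefly luciferase, relative to no-compound wells. Compounds were serially diluted (10 points, 3-fold, 0.1 nM–50 μM final, 0.5% DMSO) onto ET replicon cells and read after 48 h.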

HCV polymerase = target: T1, HCV polymerase (Hepatitis C virus genotype 1b, UniProt Q9WMX2); experiment: Polymerase assay of Biological Example 1 (IC50 values of Table 3); assay type: biochemical; details: IC50 values of Table 3, polymerase assay of Biological Example 1; read-out: NS5B-enzyme3
T1 construct: (His)6 (C); made in house; host or cells: XL-1 cells (E. coli, by own knowledge)

[2] = ET cells, luciferase activity 48 hours after compound

| Compound | IC50 [1, 2] [nM] | IC50 (HCV polymerase) [nM] | IC50 ([1]; between 100 nM and 5.0 uM) [nM] |
| --- | --- | --- | --- |
| CCC1CCCN1c1ccc(S(=O)(=O)N2CC(=O)N(c3cc(-c4ccccc4)sc3C(=O)O)[C@H](C3CCCCC3)C2)cn1 (stereo partly drawn) [Compound 154, 3-{(R)-2-Cyclohexyl-4-[6-(2-ethyl-pyrrolidin-1-yl)-pyridine-3-sulfonyl]-6-oxo-piperazin-1-yl}-5-phenyl-thiophene-2-carboxylic acid] | ≤ 100 | 3 | – |
| CC(C)c1ccc(S(=O)(=O)N2CC(=O)N(c3cc(C#CC(C)(C)C)sc3C(=O)O)[C@H](C3CCCCC3)C2)cc1 [Compound 176, 3-[(R)-2-Cyclohexyl-4-(4-isopropyl-benzenesulfonyl)-6-oxo-piperazin-1-yl]-5-(3,3-dimethyl-but-1-ynyl)-thiophene-2-carboxylic acid] | ≤ 100 | 1410 | – |
| CC(C)(C)C#Cc1cc(N2C(=O)CN(S(=O)(=O)c3ccc(C(F)(F)F)nc3)C[C@H]2C2CCCCC2)c(C(=O)O)s1 [Compound 230, 3-[(R)-2-Cyclohexyl-6-oxo-4-(6-trifluoromethyl-pyridine-3-sulfonyl)-piperazin-1-yl]-5-(3,3-dimethyl-but-1-ynyl)-thiophene-2-carboxylic acid] | – | 6 | 100 to 5000 |
| O=C(O)c1sc(-c2ccccc2)cc1N1C(=O)CN(S(=O)(=O)c2ccc(N3CCCC3)nc2)CC1C1CCCCC1 (stereo not shown) [Compound 76, 3-[2-Cyclohexyl-6-oxo-4-(6-pyrrolidin-1-yl-pyridine-3-sulfonyl)-piperazin-1-yl]-5-phenyl-thiophene-2-carboxylic acid] | ≤ 100 | 4 | – |
| O=C(O)c1sc(-c2ccccc2F)cc1N1C(=O)CCCC1C1CCCCC1 (stereo not shown) [Compound 67, 3-(2-Cyclohexyl-6-oxo-piperidin-1-yl)-5-(2-fluoro-phenyl)-thiophene-2-carboxylic acid] | – | 183 | 100 to 5000 |
| CS(=O)(=O)N1CC(=O)N(c2cc(-c3ccccc3)sc2C(=O)O)C(C2CCCCC2)C1 (stereo not shown) [Compound 26, 3-(2-Cyclohexyl-4-methanesulfonyl-6-oxo-piperazin-1-yl)-5-phenyl-thiophene-2-carboxylic acid] | – | 67 | 100 to 5000 |
| O=C(O)c1sc(-c2ccc(F)cc2)cc1N1C(=O)CN(S(=O)(=O)c2ccc(N3CCC(F)(F)C3)nc2)C[C@H]1C1CCCCC1 [Compound 286, 3-{(R)-2-Cyclohexyl-4-[6-(3,3-difluoro-pyrrolidin-1-yl)-pyridine-3-sulfonyl]-6-oxo-piperazin-1-yl}-5-(4-fluoro-phenyl)-thiophene-2-carboxylic acid] | ≤ 100 | 1 | – |
| CC(C)S(=O)(=O)N1CC(=O)N(c2cc(C#CC(C)(C)C)sc2C(=O)O)[C@H](C2CCCCC2)C1 [Compound 221, 3-[(R)-2-Cyclohexyl-6-oxo-4-(propane-2-sulfonyl)-piperazin-1-yl]-5-(3,3-dimethyl-but-1-ynyl)-thiophene-2-carboxylic acid] | – | 19 | 100 to 5000 |
| Cc1ccc(S(=O)(=O)N2CC(=O)N(c3cc(C#CC(C)(C)C)sc3C(=O)O)C(C3CCCCC3)C2)cc1 (stereo not shown) [Compound 166, 3-[2-Cyclohexyl-6-oxo-4-(toluene-4-sulfonyl)-piperazin-1-yl]-5-(3,3-dimethyl-but-1-ynyl)-thiophene-2-carboxylic acid] | ≥ 5000 | 982 | – |
| O=C(O)c1sc(-c2ccc(F)cc2)cc1N1C(=O)CN(S(=O)(=O)c2ccc(N3C[C@H]4C[C@@H]3CO4)nc2)C[C@H]1C1CCCCC1 [Compound 273, 3-{(R)-2-Cyclohexyl-4-[(1R,4R)-6-(2-oxa-5-aza-bicyclo[2.2.1]hept-5-yl)-pyridine-3-sulfonyl]-6-oxo-piperazin-1-yl}-5-(4-fluoro-phenyl)-thiophene-2-carboxylic acid] | ≤ 100 | 1 | – |
| Cc1ccc(-c2cc(N3C(=O)C(C)(C)OC[C@H]3C3CCCCC3)c(C(=O)O)s2)cc1 [Compound 314, 3-((R)-5-Cyclohexyl-2,2-dimethyl-3-oxo-morpholin-4-yl)-5-p-tolyl-thiophene-2-carboxylic acid] | ≤ 100 | 6 | – |
| CCC(C)S(=O)(=O)N1CC(=O)N(c2cc(-c3ccccc3)sc2C(=O)O)C(C2CCCCC2)C1 (stereo not shown) [Compound 45, 3-[4-(Butane-2-sulfonyl)-2-cyclohexyl-6-oxo-piperazin-1-yl]-5-phenyl-thiophene-2-carboxylic acid] | – | 4900 | 100 to 5000 |
| Cc1nc(C)c(S(=O)(=O)N2CC(=O)N(c3cc(C#CC(C)(C)C)sc3C(=O)O)[C@H](C3CCCCC3)C2)s1 [Compound 244, 3-[(R)-2-Cyclohexyl-4-(2,4-dimethyl-thiazole-5-sulfonyl)-6-oxo-piperazin-1-yl]-5-(3,3-dimethyl-but-1-ynyl)-thiophene-2-carboxylic acid] | ≤ 100 | 2 | – |
| CC1(C)OC[C@@H](C2CCCCC2)N(c2cc(-c3ccc(Cl)cc3)sc2C(=O)O)C1=O [Compound 315, 5-(4-Chloro-phenyl)-3-((R)-5-cyclohexyl-2,2-dimethyl-3-oxo-morpholin-4-yl)-thiophene-2-carboxylic acid] | ≤ 100 | 6 | – |
| O=C(O)c1sc(-c2ccccc2)cc1N1C(=O)CN(S(=O)(=O)c2ccc(-c3ccc(F)cc3F)nc2)C[C@H]1C1CCCCC1 [Compound 205, 3-{(R)-2-Cyclohexyl-4-[6-(2,4-difluoro-phenyl)-pyridine-3-sulfonyl]-6-oxo-piperazin-1-yl}-5-phenyl-thiophene-2-carboxylic acid] | – | 4 | 100 to 5000 |
| CC(C)(C)C#Cc1cc(N2C(=O)CN(S(=O)(=O)c3cccnc3)C[C@H]2C2CCCCC2)c(C(=O)O)s1 [Compound 192, 3-[(R)-2-Cyclohexyl-6-oxo-4-(pyridine-3-sulfonyl)-piperazin-1-yl]-5-(3,3-dimethyl-but-1-ynyl)-thiophene-2-carboxylic acid] | ≤ 100 | 3 | – |
| C[C@@H](O)CC[C@@]1(C)OC[C@@H](C2CCCCC2)N(c2cc(C#CC(C)(C)C)sc2C(=O)O)C1=O [Compound 321, 3-[(2R,5R)-5-Cyclohexyl-2-((R)-3-hydroxy-butyl)-2-methyl-3-oxo-morpholin-4-yl]-5-(3,3-dimethyl-but-1-ynyl)-thiophene-2-carboxylic acid] | ≤ 100 | 2 | – |
| CC1C(=O)N(c2cc(-c3ccccc3)sc2C(=O)O)C(C2CCCCC2)CN1S(=O)(=O)c1ccc(N2CCOCC2)nc1 (stereo not shown) [Compound 128, 3-[6-Cyclohexyl-3-methyl-4-(6-morpholin-4-yl-pyridine-3-sulfonyl)-2-oxo-piperazin-1-yl]-5-phenyl-thiophene-2-carboxylic acid] | – | 9 | 100 to 5000 |
| N[C@@H]1CCN(c2ccc(S(=O)(=O)N3CC(=O)N(c4cc(-c5ccccc5)sc4C(=O)O)[C@H](C4CCCCC4)C3)cn2)C1 [Compound 141, 3-{(R)-4-[6-((R)-3-Amino-pyrrolidin-1-yl)-pyridine-3-sulfonyl]-2-cyclohexyl-6-oxo-piperazin-1-yl}-5-phenyl-thiophene-2-carboxylic acid] | ≤ 100 | 2 | – |
| CCc1ccc(S(=O)(=O)N2CC(=O)N(c3cc(-c4ccc(C)cc4)sc3C(=O)O)[C@H](C3CCCCC3)C2)cn1 [Compound 304, 3-[(R)-2-Cyclohexyl-4-(6-ethyl-pyridine-3-sulfonyl)-6-oxo-piperazin-1-yl]-5-p-tolyl-thiophene-2-carboxylic acid] | ≤ 100 | 5 | – |
| CC(C)(C)C#Cc1cc(N2C(=O)CN(S(=O)(=O)c3ccc(C(F)(F)F)cc3)C[C@H]2C2CCCCC2)c(C(=O)O)s1 [Compound 250, 3-[(R)-2-Cyclohexyl-6-oxo-4-(4-trifluoromethyl-benzenesulfonyl)-piperazin-1-yl]-5-(3,3-dimethyl-but-1-ynyl)-thiophene-2-carboxylic acid] | ≤ 100 | 5.5 | – |
| CN(C)[C@@H]1CCN(c2ccc(S(=O)(=O)N3CC(=O)N(c4cc(-c5ccccc5)sc4C(=O)O)[C@H](C4CCCCC4)C3)cn2)C1 [Compound 163, 3-{(R)-2-Cyclohexyl-4-[6-((R)-3-dimethylamino-pyrrolidin-1-yl)-pyridine-3-sulfonyl]-6-oxo-piperazin-1-yl}-5-phenyl-thiophene-2-carboxylic acid] | ≤ 100 | 1 | – |
| CC(C)(C)C#Cc1cc(N2C(=O)[C@@](C)(CCO)OC[C@H]2C2CCCCC2)c(C(=O)O)s1 [Compound 323, 3-[(2R,5R)-5-Cyclohexyl-2-(2-hydroxy-ethyl)-2-methyl-3-oxo-morpholin-4-yl]-5-(3,3-dimethyl-but-1-ynyl)-thiophene-2-carboxylic acid] | ≤ 100 | 3 | – |
| CCN(CC)c1ccc(S(=O)(=O)N2CC(=O)N(c3cc(-c4ccccc4)sc3C(=O)O)C(C3CCCCC3)C2)cn1 (stereo not shown) [Compound 69, 3-[2-Cyclohexyl-4-(6-diethylamino-pyridine-3-sulfonyl)-6-oxo-piperazin-1-yl]-5-phenyl-thiophene-2-carboxylic acid] | ≤ 100 | 2 | – |
| N[C@H]1CCCN(c2ccc(S(=O)(=O)N3CC(=O)N(c4cc(-c5ccccc5)sc4C(=O)O)[C@H](C4CCCCC4)C3)cn2)C1 [Compound 142, 3-[(R)-4-((S)-3-Amino-3,4,5,6-tetrahydro-2H-[1,2′]bipyridinyl-5′-sulfonyl)-2-cyclohexyl-6-oxo-piperazin-1-yl]-5-phenyl-thiophene-2-carboxylic acid] | – | 2 | 100 to 5000 |
| CC(C)(C)C#Cc1cc(N2C(=O)[C@](C)(CCO)OC[C@H]2C2CCCCC2)c(C(=O)O)s1 [Compound 328, 3-[(2S,5R)-5-Cyclohexyl-2-(2-hydroxy-ethyl)-2-methyl-3-oxo-morpholin-4-yl]-5-(3,3-dimethyl-but-1-ynyl)-thiophene-2-carboxylic acid] | ≤ 100 | 6 | – |
